According to patent US20080095790A1, “Methods of Treating Prostate Cancer” (priority 2006, published 2008):

Assays:
[1] = tested on: PSA-peptide tetramer+CD8+ cells; test: PSA-peptide-HLA-A2 tetramer analysis of PBMC from vaccinated patients; type: in vivo, human; details: out of 28 patients (50%), week 26 and/or week 52
[2] = DTH skin testing with PSA-peptide; type: in vivo, human
Experimental: A total of 28 patients were vaccinated with PSA-peptide at three time points, i.e., weeks 1, 4 and 10 and DTH skin testing was performed on weeks 4, 14, 26 and 52.

[3] = tested on: DTH-derived T-cells; test: Cytokine bead array (CBA) of DTH-derived T-cells cultured with peptide-pulsed T2 cells; type: cell-based, human
Experimental: Out-growth of T-cells was observed within 3 days. On day 4, 500 μl of the spent medium was aspirated and replenished with fresh medium plus IL-2 and cultured further for a total of 6-8 days, until the culture wells became confluent. […] Each cycle of stimulation was 7±1 days. Cytokines released into the culture supernatant, including IFN-γ, TNF-α, IL-4, IL-6 and IL-10, were measured concurrently by cytokine bead array (CBA) analysis (BD Biosciences, San Diego, Calif.). The antigen presenting cell line, T2 (ATCC, Manassas, Va.) was used as a stimulator and was pulsed with 20 μg/ml of PSA-peptide or control HLA-A2 binding peptide, HIV-RT476-484 or diluent alone (0.4% volume by volume). T2 cells (25,000/well) were cultured with DTH-derived T-cells (100,000/well) in complete medium containing 30 U/ml of IL-2 in a total volume of 1 ml per well in 48-well plates. […] Cells were incubated at 37° C. for 24 hours in 5% CO2 atmosphere. Supernatants were harvested and stored in sterile vials at −80° C. At the time of assay, samples were thawed and cytokines were measured using a CBA kit as per the manufacturer's protocol with a FACSCalibur flow cytometer (Becton Dickinson, Mountain View, Calif.).

[4] = tested on: T2 cells; test: Chromium release assay (CRA), 4 hour; type: cell-based, human
Experimental: Specific cytolytic activity was analyzed by standard 4 hour CRA as previously described (Xue et al., (1997) Prostate 30:73). […] Supernatants recovered from CRA were assayed for gamma emission using a Top-count NXT scintillation counter (Packard, Meriden, Conn.) and the percent specific lysis was calculated as previously described (Xue et al., (1997) Prostate 30:73).

[5] = 6 out of 7 patients, after 1-3 cycles in vitro stimulation with PSA-peptide
[6] = four patients, after 1-3 cycles in vitro stimulation

KLQCVDLHV (listed as Homo sapiens) [PSA-peptide]
patients who developed ≧4 fold increases in CD8+ PSA-peptide specific tetramer cells [1]: 14 patients
DTH induration with increasing doses of peptide ([2]; 1 to 20 μg peptide, responding patients): increasing level of DTH induration
patients who developed positive DTH responses to PSA-peptide over time ([2]; of 28 patients (fifty percent), DTH testing weeks 4, 14, 26, 52): 14 patients
specific IFN-γ responses, median [3, 5]: 163 pg/mL
specific IFN-γ responses, range over patients [3, 5]: 85 to 1030 pg/mL
specific levels of IL-4, range over patients [3, 6]: 18 to 486 pg/mL
specific levels of TNF-α, median [3, 6]: 38 pg/mL
specific levels of TNF-α, range over patients [3, 6]: 23 to 96 pg/mL
IL-6 expression ([3]; one patient (UPIN 49)): Non-specific expression
patients whose DTH-derived T-cells showed specific IFN-γ responses ([3]; out of 7 patients): 6 patients
cytokine responses against T2 cells pulsed with PSA-peptide compared to HIV-RT476-484 or no peptide ([3]; patient UPIN55, cycle 0, without peptide priming in vitro): specific cytokine responses
lysis of PSA-peptide-pulsed T2 cells by sorted CD4−CD8+ T-cells, compared to HIV-RT476-484 or no peptide ([4]; 4 patients, 1-4 cycles in vitro stimulation): peptide-specific lysis
cytolytic activity of induced T-cells ([4]; patient UPIN40): modest cytolytic activity
cytolytic activity of induced T-cells ([4]; patients UPIN45, UPIN 55, UPIN 49): strongly cytolytic
